In PubChem BioAssay (NCI):
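1) Cells in 96-well plates. 2) Compound, 48 h, 5 concentrations. 3) Linear interpolation between surrounding doses. 4) Unreached endpoint = highest concentration. TGI denotes the concentration required for complete inhibition of growth.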

Key:
Test in all cases: inhibition of tumour cell growth, NCI panel, 48 h
PC-3 prostate = tested on: PC-3 prostate
SF-295 CNS = tested on: SF-295 CNS
TK-10 renal = tested on: TK-10 renal
UACC-62 melanoma = tested on: UACC-62 melanoma
MALME-3M melanoma = tested on: MALME-3M melanoma

| SMILES | TGI (PC-3 prostate) [µM] | TGI (SF-295 CNS) [µM] | TGI (TK-10 renal) [µM] | TGI (UACC-62 melanoma) [µM] | TGI (MALME-3M melanoma) [µM] |
| --- | --- | --- | --- | --- | --- |
| Cc1ccc(S(=O)(=O)N2CCN(CCO)CCN(S(=O)(=O)c3ccc(C)cc3)CCN(CCO)CC2)cc1 | > 100 | > 100 | > 100 | 37.7 |  |
| O=C(NCc1ccccc1)c1c(O)c2ccccc2[nH]c1=O | > 100 | > 100 | > 100 |  | > 100 |
| C=C(C(=O)OC)[C@H]1CC/C(C)=C/CC/C(C)=C/CC[C@@]2(C)O[C@@H]2C1 | 46.4 | 29.6 | 59 | 26 | 63.3 |
| O=C(C=P(c1ccccc1)(c1ccccc1)c1ccccc1)c1ccc(-c2ccc(F)cc2F)cc1 | 17.5 | 9.87 | 7.2 | 4.25 | 7.17 |
| CC(C)c1nccn1Cc1ccc(Cl)cc1Cl | > 100 | > 100 | > 100 | > 100 | > 100 |
| COC(=O)C(C(=O)OC)C1CC(=O)c2c(Br)sc(Br)c21 (stereo not drawn) | 29 | 60.9 | 86.7 | 29.6 | 40 |
| C[n+]1c(-c2ccc(/C=N/Nc3ccnc(N/N=C/c4ccc(-c5cn6ccccc6[n+]5C)cc4)n3)cc2)cn2ccccc21 | > 100 | 79.6 | > 100 |  |  |
| CCCCCCCCCCCCCCCCNc1ccn(C2CC(OP(=O)(O)OCC3OC(n4cc(CC)c(=O)[nH]c4=O)CC3O)C(CO)O2)c(=O)n1 (stereo not drawn) | 37.1 | 34.5 | > 100 | 35.8 |  |
| O=C(NC/C=C/Br)NC1CCNc2ccccc21 (stereo not drawn) | > 100 | > 100 | > 100 | 58.7 | 77.9 |
| O=C(Nc1nc(C23CC4CC(CC(C4)C2)C3)cs1)c1cc2cc([N+](=O)[O-])ccc2oc1=O | > 100 | > 100 | > 100 |  | > 100 |
| COc1ccc(C2NC(=O)Nc3c2c(=O)oc2c3ccc3ccccc32)cc1 (stereo not drawn) | > 100 | > 100 | > 100 | > 100 | > 100 |
| O=S(=O)(/N=C1/SC(=Nc2ccccc2)N(c2ccccc2)/C1=N/S(=O)(=O)c1ccccc1)c1ccccc1 |  |  | 91.8 | 31.9 | 68.6 |
| S=C(Nc1ccc2c(c1)Cc1ccccc1-2)Nc1ccc2c(c1)Cc1ccccc1-2 | > 100 | > 100 | > 100 | > 100 | > 100 |
| CC1(C)Oc2ccc3c(=O)c4ccccc4oc3c2C1C(=O)O (stereo not drawn) | > 100 | > 100 | > 100 | > 100 | > 100 |
| CC1(C)CC(=O)C(=CN2C(=O)CNC2=S)C(=O)C1 | > 100 | > 100 | > 100 | > 100 |  |
| Oc1ccc2ccccc2c1OCc1nnc(CCCCCCCCc2nnc(COc3c(O)ccc4ccccc34)o2)o1 | > 100 | > 100 | > 100 | > 100 | > 100 |
| O=c1oc2ccccc2c(O)c1Cc1cccc(Cc2c(O)c3ccccc3oc2=O)c1 | > 100 | > 100 | > 100 | > 100 | > 100 |
| COc1ccc(NC(=S)NNC(=O)c2cc(-c3ccccc3)nc3ccccc23)cc1 | 55.1 | 16.4 | 46.8 | 30.6 | 54 |
| CSc1ccccc1P(CCP(c1ccccc1SC)c1ccccc1SC)c1ccccc1SC | > 100 | > 95.7 | > 100 | > 100 | > 100 |
| Cc1nnc(CC#N)n1NC(=O)CC#N | > 100 | > 100 | > 100 | > 100 | > 100 |
| CC1(O)C(=O)OC2CC([C@]3(O)CCC4[C@@H]5C[C@H]6O[C@]67[C@@H](O)C=CC(=O)[C@]7(C)C5CC[C@@]43C)C1(C)C2 (stereo partly drawn) | 50.5 | > 100 | 23.2 | 30.2 | 16.6 |
| CSC1NNC2(C(=O)N1)c1ccccc1-c1ccccc12 (stereo not drawn) | > 10 | > 10 | > 10 | > 10 | > 10 |

| SMILES | TGI (PC-3 prostate) [µM] | TGI (SF-295 CNS) [µM] | TGI (TK-10 renal) [µM] | TGI (UACC-62 melanoma) [µM] | TGI (MALME-3M melanoma) [µM] |
| --- | --- | --- | --- | --- | --- |
| CC1(C)O[C@@H](CP(c2cccc3ccccc23)c2cccc3ccccc23)[C@H](CP(c2cccc3ccccc23)c2cccc3ccccc23)O1 | > 100 | > 100 | > 100 | > 100 |  |
| Cc1cccc2c1C(=O)[C@@](C)([C@]1(C)Nc3cccc(C)c3C1=O)N2 | > 100 | > 100 |  | > 100 | > 100 |
| C/C(=C\CNc1nc(Cl)nc2nc[nH]c12)CO | > 100 | > 100 | > 100 | > 100 | > 100 |
| CCCCCCCCC[n+]1cccc(C2C(C(=O)OCC)=C(C)NC(C)=C2C(=O)OCC)c1 | 15.2 | 33.9 | 25.8 | 3.54 | 4.67 |
| CCOC(=O)c1c(-c2ccc(OC)c(O)c2)c(C#N)c(=S)n(C2OC(CO)C(O)C(O)C2O)c1-c1ccccc1 (stereo not drawn) | > 100 | > 100 |  | > 100 |  |
| Cn1c(=O)c2[nH]c(CCC(=O)O)nc2n(C)c1=O | > 100 | > 100 | > 100 | > 100 | > 100 |
| c1ccc2c(c1)c1c3n2-c2cc(on2)C3CCC1 (stereo not drawn) | > 100 | > 100 | > 100 | > 100 | > 100 |
| CC(C)CC(NC(=O)C(COc1ccc([N+](=O)[O-])cc1)Cc1ccccc1)C(=O)Nc1ccccc1 (stereo not drawn) | > 100 | 26.2 | 50.3 | 30.9 | 18 |
| Cc1ccc([N+](=O)[O-])cc1NC(=O)C(=O)C1CCC2=C(Sc3ccccc3N2)C1=O (stereo not drawn) | > 100 | > 100 | > 100 | > 100 |  |
| COc1cc2c(cc1O)CC[C@@H]1C2CC[C@@]2(C)C1CC[C@@H]2O (stereo partly drawn) | > 100 | 16.5 | > 94.1 | > 100 | > 100 |
| Cc1nn(-c2ccccn2)c2c1C(SC#N)=C(C=O)CC2 | 33.8 | > 100 | 6.03 | 18.3 | 36.2 |
| COC(=O)C1[C@H](C(=O)OC)C1(Br)CBr (stereo partly drawn) | > 100 | > 100 | > 100 | > 100 |  |
| COC1=CC(=O)c2c(cc(COP(=O)(N(C)CCBr)N(C)CCBr)n2C)C1=O | > 83.2 | 3.62 | 2.01 | 2.26 | 2.95 |
| CCOC(=O)c1cc(-c2ccn(C(C)=O)c2)c(-c2cc(C)co2)[nH]1 | > 100 | > 100 | > 100 | > 100 | > 100 |
| C=C1C(=O)O[C@H]2C/C(C=O)=C\[C@H]3O[C@H]3/C(COC(=O)C(C)C)=C/CC12 (stereo partly drawn) | 8.59 | 75.5 | 25.7 | 5.42 | 24.2 |
| C=CCn1c(=O)c2ccccc2[n+]2c(-c3cccc([N+](=O)[O-])c3)csc12 | > 100 | > 100 | > 100 | > 100 | > 100 |
| Cc1nnc2sc(-c3ccc([N+](=O)[O-])o3)nn12 | 27.9 | 31 | 28.6 | 22.1 | 14.3 |
| COC(=O)C[C@H](CCSC)NC(=O)C[C@H](CCSC)NC(=O)C[C@H](CCSC)NC(=O)OC(C)(C)C | > 100 | 51.4 | 42.2 | 84.3 | > 100 |
| C[C@@H]1OCC(O)C([C@H]2OC(c3ccccc3)=N[C@H]2CO)O1 (stereo partly drawn) | > 100 | > 100 | > 100 | > 100 | > 100 |
| O=C(NCCCCNCCCNC(=O)OCc1ccccc1)OCc1ccccc1 | > 100 | 51.5 | > 100 | 37.1 |  |
| C=C1C(=O)O[C@H]2[C@H]([C@H](C)CCCC(C)=O)O[C@H]([C@@]3(C)CCC(=O)O3)C[C@@H]12 | > 100 | > 100 | 52.3 | > 100 | 54.3 |
| C/C(=C\c1ccccc1)C(=O)NCc1ccc(C(=O)NCCc2c[nH]c3ccccc23)cc1 | > 100 | > 100 | > 100 | 53.7 | > 100 |

| SMILES | TGI (PC-3 prostate) [µM] | TGI (SF-295 CNS) [µM] | TGI (TK-10 renal) [µM] | TGI (UACC-62 melanoma) [µM] | TGI (MALME-3M melanoma) [µM] |
| --- | --- | --- | --- | --- | --- |
| Cn1c(=O)c2sc3cc4c(cc3c2c2ccccc21)sc1c(=O)n(C)c2ccccc2c14 | > 100 | 42.6 | > 100 | > 100 | > 100 |
| O=c1/c(=C/c2ccc(-c3ccc(Cl)cc3Cl)o2)sc2n1[C@@H](c1ccc3c(c1)OCO3)C=C(c1cc(F)c(Cl)cc1Cl)N=2 | > 100 | > 100 | 59 | > 100 | > 100 |
| CCOC(=O)c1cn(C)nc1N/C(C)=C\C(=O)c1ccccc1 | > 100 | > 100 | > 100 | > 100 | > 100 |
| COC(=O)c1c(C#C[Si](C)(C)C)c(C#C[Si](C)(C)C)c(C#C[Si](C)(C)C)c(C#C[Si](C)(C)C)c1C(=O)OC | > 100 | > 100 | > 100 | > 100 | > 100 |
| N#Cc1c(-c2ccc(Cl)cc2)cc(-c2nc3ccccc3[nH]2)nc1N | 32.6 | 49.1 | 27.3 | 21.2 | 32.5 |
| CCOC(=O)CCC(C(=O)OCC)n1nnc2cc(Nc3c(C)[n+]([O-])c4ccc(Cl)cc4[n+]3[O-])ccc21 (stereo not drawn) | > 100 | > 100 | > 100 | > 100 | > 100 |
| CCOC(=O)N1C(=S)C(C(=O)OC)(C(=O)OC)N=C1C | > 100 | > 100 | > 100 | > 100 |  |
| CCOC(=O)C1=C(C)N(c2ccc(C)cc2)C2(O)C=CC(=O)C3=C(O)c4ccccc4C(=O)C312 (stereo not drawn) | > 100 | > 100 | > 100 | > 100 | 43.1 |
| Cc1ccc2c(=O)c(C(=O)N(CCO)CCO)c[nH]c2n1 | > 100 | > 100 | > 100 | > 100 | > 100 |
| O=C(O)CCCc1ccc2c(c1)CC1(C2)Cc2ccc(CCCC(=O)O)cc2C1 | > 100 | > 100 | > 100 | > 100 | > 100 |
| CN(C)c1ccc(/C=C2\C[C@H]3[C@@H]4CCc5cc(O)ccc5[C@H]4CC[C@]3(C)C2=O)cc1 | > 100 | > 100 | > 100 | 86.1 | > 100 |
| O=C(/C=C/c1ccccc1)CCc1c(O)c2ccccc2oc1=O | > 100 | > 100 |  | > 100 | > 100 |
| c1ccc(CNc2ncnc3n[nH]nc23)cc1 | > 100 | > 100 | > 100 | > 100 | > 100 |
| COc1ccc(NS(=O)c2cccc(C)c2)cc1 (stereo not drawn) | > 100 | > 100 | > 100 |  | > 100 |
| COc1cc(S(=O)(=O)N/N=C/c2cc(Br)c(O)c(OC)c2)c(OC)cc1NC(C)=O | > 100 | > 100 | > 100 |  |  |
| O=C(NCc1cccnc1)C(=O)NCc1cccnc1 | > 100 | > 100 | > 100 | > 100 | > 100 |
| CN(C)C=Nc1nncc2n[nH]nc12 | > 100 | > 100 | > 100 | > 100 |  |
| COc1ccc(C2=NNC(=O)c3ccccc3N2c2nc(-c3cccs3)nc3ccc(Br)cc23)cc1 | 91.4 | 55.1 | 72.8 | > 100 | 75.9 |
| COC(=O)C1=C(C)NC2(C)OC(C)(O)C(C(C)=O)C12C(C)=O (stereo not drawn) | > 100 | > 100 | > 100 | > 100 | 50.9 |
| CC1(C)CC2(C)OC(=N)C1(C#N)C2(C#N)C#N (stereo not drawn) | 30.3 | 31.5 | 22.7 | 24.9 | 31.4 |
| Cc1cccc(C(O)c2cccnc2)c1O (stereo not drawn) | > 100 | > 100 | > 100 | > 100 | > 100 |
| O=C1C(=Cc2ccccc2[N+](=O)[O-])N=C(c2ccccc2)N1n1c(-c2ccccc2)nc2ccccc2c1=O | 80.6 | > 100 | > 100 | 46.6 | 91.7 |
